Laboratory results reported in patent publication US20010049374A1 (priority 1997, published 2001).

biological target: T1, urokinase enzyme Abbokinase (Homo sapiens, UniProt P00749); assay: Determination of urokinase inhibition (Abbokinase, chromogenic substrate S-2444); assay type: biochemical; settings: Inhibitory potency against urokinase; substrate S-2444 at 200 μM, enzyme 2-3 nM, pH 7.4, 405 nm; read-out: IC50
T1 construct: purchased Abbott Laboratories, Abbott Park, Ill
Method: Several vials were reconstituted as directed on the vial, aliquoted and stored frozen. The enzyme was further diluted in assay buffer and 10 μl was used in the assay. Enzyme concentration in the assay was 2-3 nM. […] The Spectromax® calculated the reaction rates which were used to calculate percent inhibition of the compounds of this invention versus the reaction rate of the enzyme in the absence of any inhibitor. The Ki's of the inhibitors were calculated from the percent inhibition and previously established Km.

Substance | IC50 [µM]
1,1-Dimethylethyl [4- [[(6-aminoiminomethyl-2-naphthalenyl)amino]carbonyl]phenyl]carbamate [Example 76] | 0.96
1,1-dimethylethyl [2-[3-[6-(aminoiminomethyl)-2-naphathalenyl]ethynyl]-6-methoxyphenyl]ethyl]carbamate [Example 122] | 0.33
1,1-dimethylethyl [[4-[[[6-(aminoiminomethyl)-2-naphathalenyl]amino]carbonyl]phenyl]methyl]carbamate [Example 135] | 1.91
1-[(7-Aminoiminomethyl-2-methoxy-1-naphthalenyl)oxy]-3-hydroxypropane [Example 10] | 3.2
1-[(7-Aminoiminomethyl-2-methoxy-1-naphthalenyl)oxy]-3-phenylpropane [Example 23] | 4
1-[(7-aminoiminomethyl-2-methoxy-1-naphthalenyl)oxy]-3-bromopropane [Example 21] | 1.7
2-[(7-Aminoiminomethyl-3-methoxy-1-naphthalenyl)oxy]acetamide [Example 39] | 12.2
3-[(7-Aminoiminomethyl-2-methoxy-1-naphthalenyl)oxy]propene [Example 22] | 1.7
4-Amino-N-[3-(6-aminoiminomethyl-2-naphthalenyl)-2-propynyl]benzamide [Example 36] | 1.75
4-[7-(Aminoiminomethyl)-2-methoxy-1-naphthalenyl]dihydro-2(3H)-furanone [Example 85] | 1.38
4-[(6-Aminoiminomethyl-2-naphthalenyl)oxy]-N-methylbenzeneacetamide [Example 56] | 2.9
4-[[6-(aminoiminomethyl)-2-naphthalenyl]ethynyl]-L-phenylalanine [Example 109] | 2.85
4-[[[7-(aminoiminomethyl)-1-(2-pyrimidinylamino)-2-naphthalenyl]oxy]methyl]benzoic acid [Example 134] | 0.064
5-[[6-(aminoiminomethyl)-2-naphthalenyl]oxy]pentanoic acid [Example 129] | 4.84
6-(aminoiminomethyl)-4-(3-furanyl)-N-(1H-pyrazol-3-yl)-2-naphthalenecarboxamide [Example 116] | 0.045
6-(aminoiminomethyl)-4-(3-furanyl)-N-(2-pyridinyl)-2-naphthalenecarboxamide [Example 146] | 0.372
6-(aminoiminomethyl)-4-(3-furanyl)-N-(3-pyridinyl)-2-naphthalenecarboxamide [Example 117] | 0.278
6-(aminoiminomethyl)-4-(3-furanyl)-N-(4-pyridinyl)-2-naphthalenecarboxamide [Example 115] | 0.063
6-(aminoiminomethyl)-4-(3-furanyl)-N-[4-(trifluoromethyl)phenyl]-2-naphthalenecarboxamide [Example 114] | 0.344
6-(aminoiminomethyl)-4-(3-furanyl)-N-phenyl-2-naphthalenecarboxamide [Example 152] | 0.083
6-(aminoiminomethyl)-4-[1-(methylsulfonyl)-1H-pyrazol-4-yl]-N-phenyl-2-naphthalenecarboxamide [Example 153] | 0.877
6-(aminoiminomethyl)-4-[5-(ethylsulfonyl)-3-furanyl]-N-phenyl-2-naphthalenecarboxamide [Example 227] | 0.015
6-(aminoiminomethyl)-4-[5-(ethylthio)-3-furanyl]-N-phenyl-2-naphthalenecarboxamide [Example 200] | 0.037
6-(aminoiminomethyl)-4-[5-(methoxymethyl)-3-furanyl]-N-phenyl-2-naphthalenecarboxamide [Example 230] | 0.103

Substance | IC50 [µM]
6-(aminoiminomethyl)-4-[5-(methylsulfonyl)-3-furanyl]-N-phenyl-2-naphthalenecarboxamide [Example 231] | 0.015
6-(aminoiminomethyl)-4-[5-(propylsulfonyl)-3-furanyl]-N-phenyl-2-naphthalenecarboxamide [Example 228] | 0.025
6-(aminoiminomethyl)-N-(1,2,3,4-tetrahydro-6-quinolinyl)-2-naphthalenecarboxamide [Example 147] | 0.213
6-(aminoiminomethyl)-N-(1,3-benzodioxol-5-yl)-2-naphthalenecarboxamide [Example 188] | 0.22
6-(aminoiminomethyl)-N-(1, 2, 3, 4-tetrahydro-2, 4-dioxo5-pyrimidinyl)-2-naphthalenecarboxamide [Example 189] | 1.3
6-(aminoiminomethyl)-N-(1H-imidazolyl)-2-naphthalenecarboxamide [Example 214] | 2.56
6-(aminoiminomethyl)-N-(1H-indazol-5-yl)-2-naphthalenecarboxamide [Example 204] | 0.331
6-(aminoiminomethyl)-N-(1H-indazol-6-yl)-2-naphthalenecarboxamide [Example 203] | 0.624
6-(aminoiminomethyl)-N-(1H-indol-5-yl)-2-naphthalenecarboxamide [Example 205] | 0.337
6-(aminoiminomethyl)-N-(1H-pyrazol-3-yl)-2-naphthalenecarboxamide [Example 191] | 0.887
6-(aminoiminomethyl)-N-(2,3-dihydro-1H-inden-5-yl)-2-naphthalenecarboxamide [Example 118] | 0.121
6-(aminoiminomethyl)-N-(2-methyl-6-quinolinyl)-2-naphthalenecarboxamide [Example 217] | 0.67
6-(aminoiminomethyl)-N-(2-naphthalenyl)-2-naphthalenecarboxamide [Example 143] | 0.36
6-(aminoiminomethyl)-N-(2-thiazolyl)-2-naphthalenecarboxamide [Example 186] | 2.98
6-(aminoiminomethyl)-N-(3, 4, 5-trimethoxyphenyl)-2-naphthalenecarboxamide [Example 195] | 1.3
6-(aminoiminomethyl)-N-(3, 5-difluorophenyl)-2-naphthalenecarboxamide [Example 190] | 0.565
6-(aminoiminomethyl)-N-(3-ethoxyphenyl)-2-naphthalenecarboxamide [Example 223] | 0.07
6-(aminoiminomethyl)-N-(3-methyl-2-pyridinyl)-2-naphthalenecarboxamide [Example 196] | 0.62
6-(aminoiminomethyl)-N-(3-phenoxyphenyl)-2-naphthalenecarboxamide [Example 221] | 0.52
6-(aminoiminomethyl)-N-(3-propoxyphenyl)-2-naphthalenecarboxamide [Example 218] | 0.086
6-(aminoiminomethyl)-N-(3-pyridazinyl)-2-naphthalenecarboxamide [Example 209] | 0.82
6-(aminoiminomethyl)-N-(4-ethylphenyl)-2-naphthalenecarboxamide [Example 142] | 0.54
6-(aminoiminomethyl)-N-(4-methyl-2-thiazolyl)-2-naphthalenecarboxamide [Example 199] | 2.3
